Source: patent US12458630B2, “Combination therapy for cancer” (The Regents of the University of California, priority 2020, dated 2025)

Legend:
KC6141 cells [1] = test: Luminescence ATP detection assay; assay type: cell-based, mouse; conditions: 0.5 mM glucose, 24 hrs; for cellular ATP: KC6141 cells on ECM, EIPA 10.5 μM, MBQ-167 500 nM, MRT68921 600 nM
Experimental: (§1) Extracellular Matrix (ECM) Preparation. Skin fibroblasts were seeded on 6/12/96-well plates. One day after plating, cells were switched into DMEM (with pyruvate) with 10% dialysed FBS supplemented with or without 500 μM ^3H-proline and 100 μM Vitamin C. Cells were cultured for 6 days with media renewal every 24 h. After six days, skin fibroblasts were removed by washing in 1 ml or 500 μl or 100 μl per well PBS with 0.5% (v/v) Triton X-100 and 20 mM NH4OH. ECM was washed five times with PBS before plating KC6141 cells. The following day, KC6141 cells were switched into the indicated medium for 24 or 72 hrs.
Luminescence ATP Detection Assay. Intracellular ATP level was determined with luminescence ATP detection assay system (PerkinElmer) according to manufacturer's protocol. Briefly, KC6141 cells were grown on 96-well plates coated with or without ECM in the presence of 100 μl 0.5 mM glucose medium with or without EIPA (10.5 μM), MBQ-167 (500 nM), MRT68921 (600 nM) or their combinations for 24 hrs. 50 μl mammalian cell lysis solution was added and shaken for 5 minutes. Next, 50 μl substrate solution was added and shaken for five minutes. Finally, plate was adapted in dark for 10 minutes and luminescence was measured.

KC6141 cells [2] = test: NADPH/NADP measurement; assay type: cell-based, mouse; conditions: 0.5 mM glucose, 24 hrs; for NADPH to NADP ratio: KC6141 cells on ECM
Experimental: Extracellular Matrix (ECM) Preparation. Skin fibroblasts were seeded on 6/12/96-well plates. One day after plating, cells were switched into DMEM (with pyruvate) with 10% dialysed FBS supplemented with or without 500 μM ^3H-proline and 100 μM Vitamin C. Cells were cultured for 6 days with media renewal every 24 h. After six days, skin fibroblasts were removed by washing in 1 ml or 500 μl or 100 μl per well PBS with 0.5% (v/v) Triton X-100 and 20 mM NH4OH. ECM was washed five times with PBS before plating KC6141 cells. The following day, KC6141 cells were switched into the indicated medium for 24 or 72 hrs. NADPH/NADP Measurement. NADPH and NADP measurement was performed using NADP/NADPH-Glo™ Assays (Promega #G9081) according to manufacturer's protocol. Briefly, KC6141 cells were grown on 96-well plates coated with ECM and treated as above. Then medium was removed and replaced with 50 μl of PBS and 50 μl of base solution with 1% DTAB. The plate was briefly mixed to ensure homogeneity and cell lysis. 50 μl of each sample was removed to an empty well for acid treatment. 25 μl per well of 0.4N HCl was added into these samples. All samples were incubated for 15 minutes at 60° C. and then equilibrated for 10 minutes at room temperature. 25 μl of 0.5M Trizma® base was added into each well of acid-treated cells to neutralize the acid. 50 μl of HCl/Trizma® solution was added to each well containing base-treated samples. Then 100 μl of NADP/NADPH-Glo™ Detection Reagent was added into each well and incubated for 30 minutes at room temperature. Luminescence was recorded using a luminometer.

KC6141 cells [3] = test: L-Amino acid assay; assay type: cell-based, mouse; conditions: 0.5 mM glucose, 24 hrs; for amino acid content: KC6141 cells on ECM
Experimental: as §1
L-Amino Acid Assay. Total amount of free L-amino acids (except for glycine) were measured by L-Amino Acid Assay Kit (Colorimetric) (antibodies) according to manufacturer's protocol. Briefly, KC6141 cells were grown on 6-well plates coated with or without ECM and treated as above. The cells were resuspended at 10^6 cells/mL 1× Assay Buffer and were homogenized on ice and then centrifuged to remove debris. 50 μL of each L-Alanine standard or cell lysis was added into wells of a 96-well microtiter plate. Then 50 μL of Reaction Mix was added to each well. The well contents were mixed thoroughly and incubated for 90 minutes at 37° C. protected from light. The plate was read with a spectrophotometric microplate reader in the 540-570 nm range. The concentration of L-Amino Acids was calculated within samples by comparing the sample OD to the standard curve.

KC6141 mouse PDAC cells = test: Cell viability assay (CCK-8); assay type: cell-based; conditions: 3 days; for cell viability vs vehicle: WT, Ikkα-KD, Nhe1-KD, Ikkα-KD;Nhe1-KD KC6141 cells
Experimental: as §1
Cell viability assay. Cell viability was determined with Cell Counting Kit-8 assay (CCK-8 assay kit, Glpbio). Cells were plated in 96-well plates at a density of 3000 cells (MIA PaCa-2) or 1500 cells (KC6141) per well and incubated overnight prior to treatment. EIPA (10 μM), MRT68921 (600 nM) or erlotinib (2 μM, Sigma) were added to the wells for 72 and 96 hrs. Next, 10 μL of CCK-8 was added to each well. The optical density was read at 450 nm using a microplate reader (FilterMax F5, Molecular Devices, USA) at day 0, 1, 2, 3, and 4. For glutamine-deprivation assays, cells in 96-well plates were rinsed briefly in PBS and incubated in the 0.2 mM glutamine. Glutamine-free DMEM medium was supplemented with 0.2 mM glutamine in the presence of 10% dialysed FBS and 25 mM HEPES. For some conditions, the medium was supplemented with a final concentration of 2% BSA (Fraction V, fatty-acid-, nuclease and protease-free, Calbiochem). For all experiments, media were replaced every 24 hrs. Viable cell counts were obtained using CCK-8 assay described as above.
In some embodiments, cells were plated in 96-well plates coated with or without ECM at a density of 3000 cells (MIA PaCa-2, 1444, 1305, COLO 357/FG) or 1500 cells (KC6141) per well and incubated overnight prior to treatment. EIPA (10.5 μM), IPI549 (600 nM), MBQ-167 (500 nM), MRT68921 (600 nM) or erlotinib (2 μM, Sigma), ML385 (10 μM, Sigma), HCQ (10 μM or 80 μM) or their combinations were added to the wells for 24, 72 or 96 hrs. Next, 10 μL of CCK-8 was added to each well. The optical density was read at 450 nm using a microplate reader (FilterMax F5, Molecular Devices, USA) at day 0, 1, 2, 3, and 4. For glutamine-deprivation assays, cells in 96-well plates were rinsed briefly in PBS and incubated in the 0.2 mM glutamine. Glutamine-free DMEM medium was supplemented with 0.2 mM glutamine in the presence of 10% dialyzed FBS and 25 mM HEPES. For glucose-deprivation assays, cells in 96-well plates were rinsed briefly in PBS and incubated in the 0.5 mM glucose. Glucose-free DMEM medium was supplemented with 0.5 mM glucose in the presence of 10% dialyzed FBS and 25 mM HEPES. For some conditions, the medium was supplemented with a final concentration of 2% BSA (Fraction V, fatty-acid-, nuclease and protease-free, Calbiochem). For all experiments, media were replaced every 24 hrs. Viable cell counts were obtained using CCK-8 assay described as above.

[4] = p62 KD or Nrf2 KD KC6141 cells on ECM

| Structure (SMILES) | cellular ATP (KC6141 cells [1]) | cellular ATP in p62/NRF2 ablated cells (KC6141 cells [1]; [4]) | NADPH to NADP ratio (KC6141 cells [2]) | NADPH to NADP ratio in NRF2 ablated cells (KC6141 cells [2]; Nrf2 KD KC6141 cells on ECM) | amino acid content (KC6141 cells [3]) | amino acid content in p62/NRF2 ablated cells (KC6141 cells [3]; [4]) | sensitivity to single agent (cell viability) (KC6141 mouse PDAC cells; IKKα-deficient KC6141 cells) | cell viability enhanced by extracellular matrix (ECM) (KC6141 mouse PDAC cells; WT and IKKα KD 6141 cells on ECM, 0.5 mM glucose, EIPA, IPI549 600 nM, MBQ-167 500 nM) | cell viability vs vehicle (KC6141 mouse PDAC cells) | cell growth, single agent (KC6141 mouse PDAC cells; IKKα KD KC6141 cells, erlotinib 2 μM, MRT68921 600 nM) |
| --- | --- | --- | --- | --- | --- | --- | --- | --- | --- | --- |
| CCN(c1nc(N)c(C(=O)N=C(N)N)nc1Cl)C(C)C [EIPA, 5-(N-ethyl-N-isopropyl) amiloride] | reduced | ineffective | reduced | ineffective | reduced | ineffective | very sensitive | suppressed | suppression of cell viability |  |
| CN1CCc2cc(Nc3ncc(C4CC4)c(NCCCNC(=O)C4CCC4)n3)ccc2C1 [MRT68921] | further elevated |  | further elevated |  | further elevated |  |  |  | suppression of cell viability | limited |
